Assay results as given in patent US9752236B2, “Corrosion inhibitors” (Rhodia Operations, priority 2010, dated 2017).

What was measured:
[1] = Static acid immersion test in 5% w/w HCl; conditions: 50° C., 24 hours, 2000 ppm w/w active inhibitor
Description: (§1) Static acid immersion tests were used to compare the corrosion inhibition performance of various sulfosuccinates in 5% w/w HCl to the industry standard propargyl alcohol (2-propyn-1-ol) and the corrosion inhibitor Stannine® ETH, which is a blend of amine salts and aliphatic alcohols and is available from Rhodia Novecare.
(§2) • A control solution of 5% w/w HCl was prepared by diluting 37% w/w HCl with deionised water. • An inhibited solution of 5% w/w HCl & 2000 ppm w/w active corrosion inhibitor was then prepared for each of the corrosion inhibitors being evaluated. Stannine® ETH was used at 2000 ppm w/w solids as the active content of Stannine® ETH is unknown. • Each solution was then split evenly between 2 Schott bottles (for duplicate runs) and a pre-weighed C1018 mild steel coupon was placed in each so that it was completely submerged. • The Schott bottles were then sealed tightly and stored for 24 hours in an oven set at 50° C. • After the allotted time the coupons were removed from the oven and cleaned using deionised water, HCl cleaning solution and acetone. The HCl cleaning solution had been made by dissolving 5 g SnCl2 and 2 g SbCl3 in 100 ml of 37% w/w HCl. • The coupons were then oven dried before re-weighing with the average weight change of the duplicate coupons being used to calculate the corrosion rate. The above process was then repeated using (a) 5% w/w H2SO4 and (b) 5% w/w acetic acid instead of HCl.

[2] = Static acid immersion test in 5% w/w H2SO4; conditions: 5% w/w H2SO4, 50° C., 24 hours, 2000 ppm w/w active inhibitor
Description: as §1, §2

[3] = Linear Polarisation Resistance (LPR) bubble test, corrosion inhibition under oilfield conditions; conditions: 20 ppm actives; 5% NaCl brine/Isopar M 9:1; 60° C.; constant CO2; 15 hours
Description: [formula] where baseline corrosion was calculated by taking the average corrosion rate of each cell before the corrosion inhibitors were introduced.
The same tests as described in Example 1 were carried out on the products set out in Table 3 below.

[4] = Static acid immersion test in 5% w/w acetic acid; conditions: 50° C., 24 hours, 2000 ppm w/w active inhibitor
Description: as §1, §2

Row | Compound | % Efficiency [1] [%] | Corrosion rate [1] [mils/y] | % Efficiency [2] [%] | Corrosion rate [2] [mils/y] | corrosion rate (LPR), in words [3] | % Efficiency [4] [%] | Corrosion rate [4] [mils/y] | % Efficiency ([2]; listed as propargyl alcohol)
1 | Disodium oleamido MIPA sulfosuccinate | 88.5 | 163.3 | 68.4 | 607.0 | significantly reduce the corrosion rate and have a performance very similar to the industry standard | 70.9 | 40.9 | 
2 | CCCCCCCC/C=C\CCCCCCCC(=O)NCCOC(=O)C(CC(=O)[O-])S(=O)(=O)[O-].[Na+].[Na+] (stereo not shown) [Disodium oleamido MEA sulfosuccinate] | 88.0 | 171.5 | 65.2 | 669.3 | significantly reduce corrosion rates, although they do not perform quite as well as the industry standard | 56.7 | 60.7 | 
3 | C#CCO [Propargyl alcohol, 2-propyn-1-ol, reference compound] |  | 9.5 | 18.0 | 1575.2 |  |  |  | not performing well as an inhibitor in this environment
4 | Disodium ricinoleamido MEA sulfosuccinate | 84.4 | 221.4 | 81.1 | 362.5 | significantly reduce the corrosion rate and have a performance very similar to the industry standard | 77.2 | 32.0 | 
5 | Disodium oleth 9 sulfosuccinate |  |  |  |  | significantly reduce corrosion rates, although they do not perform quite as well as the industry standard |  |  | 
6 | Disodium laureth sulfosuccinate |  |  |  |  | significantly reduce the corrosion rate and have a performance very similar to the industry standard |  |  | 
7 | Disodium cocamido MIPA sulfosuccinate |  |  |  |  | significantly reduce the corrosion rate and have a performance very similar to the industry standard |  |  | 
